Patent US20200253211A1, “PHOTODYNAMIC INHIBITION OF MICROBIAL PATHOGENS IN PLANTS” (SUNCOR ENERGY INC, priority 2017, published 2020)

Experiments:
Sclerotinia homoeocarpa [1] = experiment: Radial growth of dollar spot fungus after treatment of plugs in PBS (24 well plates), dark vs light; type: cell-based; settings: for inhibition at 500 µM / inhibition at 1500 µM: Clarireedia homoeocarpa
Method: In this example, control of dollar spot fungus (Sclerotinia homoeocarpa) with chlorins combined with a chelating agent was assessed. Treatments were prepared in Phosphate Buffered Saline (PBS) in 24 well plates (in duplicates for light vs. dark incubation) at desired concentrations. Then, a 5 mm diameter plug of a Sclerotinia homoeocarpa isolate (3 isolates total tested) was inoculated into the PBS and incubated at 21° C. in the dark for 2 hours. After 2 hours, one of the 24 well plates (with isolates in triplicate) is left in the dark and one 24 well plate is placed under illumination for 1 hour (all at 21° C.). Following illumination, fungal plugs are removed from PBS, blotted dry on sterile filter paper and transferred to non-amended Potato Dextrose Agar (PDA). Radial growth of the fungus is monitored daily until the growth of S. homoeocarpa reaches the edge of the Petri-dish. Illumination is provided by LED lights emitting about 1000 μmol/m^2/s photosynthetically active radiation (PAR). In this example, control of dollar spot fungus (Sclerotinia homoeocarpa) with Zinc Protoporphyrin IX (Zn-PPIX) combined with EDTA was assessed. Treatments were prepared in Phosphate Buffered Saline (PBS) in 24 well plates (in duplicates for light vs. dark incubation) at desired concentrations. Then, a 5 mm diameter plug of a Sclerotinia homoeocarpa isolate (3 isolates total tested) was inoculated into the PBS and incubated at 21° C. in the dark for 2 hours. After 2 hours, one of the 24 well plates (with isolates in triplicate) is left in the dark and one 24 well plate is placed under illumination for 1 hour (all at 21° C.). Following illumination, fungal plugs are removed from PBS, blotted dry on sterile filter paper and transferred to non-amended Potato Dextrose Agar (PDA). Radial growth of the fungus is monitored daily until the growth of S. homoeocarpa reaches the edge of the Petri-dish. Illumination is provided by LED lights emitting about 1000 μmol/m^2/s photosynthetically active radiation (PAR). In this example, control of dollar spot fungus (Sclerotinia homoeocarpa) with bacteriochlorin combined with EDTA was assessed. Treatments were prepared in Phosphate Buffered Saline (PBS) in 24 well plates (in duplicates for light vs. dark incubation) at desired concentrations. Then, a 5 mm diameter plug of a Sclerotinia homoeocarpa isolate (3 isolates total tested) was inoculated into the PBS and incubated at 21° C. in the dark for 2 hours. After 2 hours, one of the 24 well plates (with isolates in triplicate) is left in the dark and one 24 well plate is placed under illumination for 1 hour (all at 21° C.). Following illumination, fungal plugs are removed from PBS, blotted dry on sterile filter paper and transferred to non-amended Potato Dextrose Agar (PDA). Radial growth of the fungus is monitored daily until the growth of S. homoeocarpa reaches the edge of the Petri-dish. Illumination is provided by LED lights emitting about 1000 μmol/m^2/s photosynthetically active radiation (PAR). In this example, control of dollar spot fungus (Sclerotinia homoeocarpa) with Aluminum chlorin e6 combined with EDTA was assessed. Treatments were prepared in Phosphate Buffered Saline (PBS) in 24 well plates (in duplicates for light vs. dark incubation) at desired concentrations. Then, a 5 mm diameter plug of a Sclerotinia homoeocarpa isolate (3 isolates total tested) was inoculated into the PBS and incubated at 21° C. in the dark for 2 hours. After 2 hours, one of the 24 well plates (with isolates in triplicate) is left in the dark and one 24 well plate is placed under illumination for 1 hour (all at 21° C.). Following illumination, fungal plugs are removed from PBS, blotted dry on sterile filter paper and transferred to non-amended Potato Dextrose Agar (PDA). Radial growth of the fungus is monitored daily until the growth of S. homoeocarpa reaches the edge of the Petri-dish. Illumination is provided by LED lights emitting about 1000 μmol/m^2/s photosynthetically active radiation (PAR). […]

Sclerotinia homoeocarpa [2] = experiment: Radial growth of dollar spot fungus on amended Potato Dextrose Agar, dark vs light; type: cell-based
[3] = Table 16B, light, Chlorin Rate 5 μM
[4] = Table 16B, light, Chlorin Rate 10 μM
[5] = Table 16B, light, Chlorin Rate 31 μM

Row | Molecule | % Inhibition (Sclerotinia homoeocarpa [2]; Table 16A, dark, rate 5 μM) [%] | Mean Radial Growth (Sclerotinia homoeocarpa [2]; Table 16A, dark, rate 5 μM) [mm] | % Inhibition (Sclerotinia homoeocarpa [2]; Table 16A, dark, rate 10 μM) [%] | Mean Radial Growth (Sclerotinia homoeocarpa [2]; Table 16A, dark, rate 10 μM) [mm] | % Inhibition (Sclerotinia homoeocarpa [2]; Table 16A, dark, rate 31 μM) [%] | Mean Radial Growth (Sclerotinia homoeocarpa [2]; Table 16A, dark, rate 31 μM) [mm] | % Inhibition (Sclerotinia homoeocarpa [2]; [3]) [%] | Mean Radial Growth (Sclerotinia homoeocarpa [2]; [3]) [mm] | % Inhibition (Sclerotinia homoeocarpa [2]; [4]) [%] | Mean Radial Growth (Sclerotinia homoeocarpa [2]; [4]) [mm] | % Inhibition (Sclerotinia homoeocarpa [2]; [5]) [%] | Mean Radial Growth (Sclerotinia homoeocarpa [2]; [5]) [mm] | other results
1 | O=C(OC[C@H]1O[C@@H](OC(=O)c2cc(O)c(O)c(OC(=O)c3cc(O)c(O)c(O)c3)c2)[C@H](OC(=O)c2cc(O)c(O)c(OC(=O)c3cc(O)c(O)c(O)c3)c2)[C@@H](OC(=O)c2cc(O)c(O)c(OC(=O)c3cc(O)c(O)c(O)c3)c2)[C@@H]1OC(=O)c1cc(O)c(O)c(OC(=O)c2cc(O)c(O)c(O)c2)c1)c1cc(O)c(O)c(OC(=O)c2cc(O)c(O)c(O)c2)c1 [Tannic acid] |  |  |  |  |  |  |  |  |  |  |  |  | inhibition at 500 µM (Sclerotinia homoeocarpa [1]; Table 25A, dark, rate 500 μM): -6.25%; inhibition at 1500 µM (Sclerotinia homoeocarpa [1]; Table 25A, dark, rate 1500 μM): 7.29%; inhibition at 500 µM (Sclerotinia homoeocarpa [1]; Table 25B, light, rate 500 μM): -9.69%; inhibition at 1500 µM (Sclerotinia homoeocarpa [1]; Table 25B, light, rate 1500 μM): 16.3%; Mean Radial Growth (Sclerotinia homoeocarpa [1]; Table 25A, dark, rate 500 μM): 11.33 mm; Mean Radial Growth (Sclerotinia homoeocarpa [1]; Table 25A, dark, rate 1500 μM): 9.89 mm; Mean Radial Growth (Sclerotinia homoeocarpa [1]; Table 25B, light, rate 500 μM): 11.94 mm; Mean Radial Growth (Sclerotinia homoeocarpa [1]; Table 25B, light, rate 1500 μM): 9.11 mm
2 | C=CC1=C(C)c2cc3[n-]c(cc4[n-]c(cc5nc(cc1n2)C(C)=C5C=C)c(C)c4CCC(=O)O)c(CCC(=O)O)c3C.[Zn+2] [Zn Protoporphyrin IX (PPIX), Zinc Protoporphyrin IX] |  |  |  |  |  |  |  |  |  |  |  |  | % Inhibition (Sclerotinia homoeocarpa [1]; Table 19A, light, rate 10 μM): 7.50%; Mean Radial Growth (Sclerotinia homoeocarpa [1]; Table 19A, light, rate 10 μM): 10.28 mm
3 | C=Cc1c(C)c2cc3nc(c(CC(=O)O)c4[n-]c(cc5nc(cc1[n-]2)C(C)=C5CC)c(C)c4C(=O)O)C(CCC(=O)O)C3C.[Zn+2] (stereo not shown) [ZnCe6] | 2.47 | 13.2 | 7.41 | 12.5 | 23.46 | 10.3 | 10.4 | 11.5 | 21.4 | 10.1 | 41.6 | 7.5 | 
4 | C[n+]1ccc(-c2c3nc(c(-c4cc[n+](C)cc4)c4ccc([nH]4)c(-c4cc[n+](C)cc4)c4nc(c(-c5cc[n+](C)cc5)c5ccc2[nH]5)C=C4)C=C3)cc1.Cc1ccc(S(=O)(=O)[O-])cc1.Cc1ccc(S(=O)(=O)[O-])cc1.Cc1ccc(S(=O)(=O)[O-])cc1.Cc1ccc(S(=O)(=O)[O-])cc1 [meso-Tetra (N-methyl-4-pyridyl) porphine tetra tosylate] |  |  |  |  |  |  |  |  |  |  |  |  | % Inhibition (Sclerotinia homoeocarpa [1]; Table 31A, dark, rate 0.1 μM): 4.17%; Mean Radial Growth (Sclerotinia homoeocarpa [1]; Table 31A, dark, rate 0.1 μM): 14.06 mm; % Inhibition (Sclerotinia homoeocarpa [1]; Table 31B, light, rate 0.1 μM): 34.63%; Mean Radial Growth (Sclerotinia homoeocarpa [1]; Table 31B, light, rate 0.1 μM): 8.39 mm
5 | Aluminum chlorin e6 [AlCe6] | 1.85 | 13.8 | 3.70 | 13.0 | 3.09 | 13.1 | 11.0 | 11.4 | 41.6 | 7.5 | 100.0 | 0.0 | % Inhibition (Sclerotinia homoeocarpa [1]; Table 21A, dark, rate 1 μM): −4%; Mean Radial Growth (Sclerotinia homoeocarpa [1]; Table 21A, dark, rate 1 μM): 13 mm; % Inhibition (Sclerotinia homoeocarpa [1]; Table 21A, dark, rate 10 μM): −5.33%; Mean Radial Growth (Sclerotinia homoeocarpa [1]; Table 21A, dark, rate 10 μM): 13.17 mm; % Inhibition (Sclerotinia homoeocarpa [1]; Table 21B, light, rate 1 μM): −2.18%; Mean Radial Growth (Sclerotinia homoeocarpa [1]; Table 21B, light, rate 1 μM): 13 mm; % Inhibition (Sclerotinia homoeocarpa [1]; Table 21B, light, rate 10 μM): 62.45%; Mean Radial Growth (Sclerotinia homoeocarpa [1]; Table 21B, light, rate 10 μM): 4.78 mm
